In patent US7994311B2, “Fluorescent chemosensors for metals based on dipyrrins” (priority 2006, dated 2011):

Tests used:
[1] = Fluorescence response of (4) to Zn^2+ concentration; type: binding; details: fluorescence emission
Description: We believe that the steric strain in conformations that would allow the orbital alignment needed for conjugation may be detrimental to high quantum yield. 1-pyrenyldipyrrin ((4), PYDPY1), is more fluorescent and sterically less demanding than (3). […] Indeed, as a Zn^2+ sensor, (4) is unsurpassed in its effective concentration range with Zn^2+, thus providing a rarely found degree of sensitivity.
FIG. 5 is a graph of fluorescence response and Zn^2+ concentration and (4).

[2] = Fluorescence quantum yield of dipyrrins, free and with Zn^2+; details: even with Cd^2+; Table 1, FIG. 2
Description: The conjugated (2) comprises a fluorophore with the […] moiety behaving as an ionphore. Benzaldehyde was used to form (2) because the properties shown by this type of sensing molecule with an benzene ring are representative of the general behavior of the family of compounds. In spite of the low fluorescence quantum yields of benzene, substituting benzene (ΦF=0.05±0.02) with a more intrinsically luminescent unit can make a great improvement in ΦF. An examples of another aromatic entity used instead of benzene is anthracene (ΦF0.27±0.03). When a […] attached to the benzene ring, the fluorescence quantum yield (ΦF) of (2) was very low and was determined to be 0.0011 due to the photo-induced electron transfer (PET), which is the intra-molecular quenching mechanism of an enamine group and an imine group in conjugate. When Zn^2+ bound with a […] moiety, PET was hindered and fluorescence emission intensity was recovered. […] Zn^2+, the fluorescence quantum yield was determined to be 0.07. […] (2), (3) and (4). The excitation wavelengths were 432, 475, 450 nm. The emission wavelengths were 496, 612, 497 and 599 nm for (2), (3) and (4). The ratio of fluorescence quantum yield [fluorescence quantum yield of metal ion/(2), (3) or (4) complex over fluorescence quantum yield of free ligand (10 μM)] was measured in acetonitrile.

[3] = Zn^2+ binding / complex formation (qualitative)

Row | Kd [1] | binding of Zn^2+ (in words) [3] | SMILES | selectivity for Zn^2+ in comparison to other common metal ions [2]
1 | 20 µM | – | C1=CC(=C(c2ccc[nH]2)c2ccc3ccc4cccc5ccc2c3c45)N=C1 [(4), 1-pyrenyldipyrrin] | –
2 | – | found to bind Zn^2+ | C1=CC(=C(c2ccccc2)c2ccc[nH]2)N=C1 [Compound (2), 5-phenyl-4,6-dipyrrin] | Excellent selectivity
